Measured values as given in BindingDB's records for doi:10.1046/j.1471-4159.1998.70052147.x (F. Hoffmann-La Roche, 1998).
pKi: −log10 of the molar value. Where a name gives a salt, the structure may show the parent alone.

target: Glutamate receptor ionotropic, NMDA 1 (Rattus norvegicus, UniProt P35439)

pKi | SMILES
6.52 | OC(CN1CCC(Cc2ccc(F)cc2)CC1)c1ccc(Cl)cc1 (stereo unspecified)
8.10 | C[C@@H]([C@@H](O)c1ccc(O)cc1)N1CCC(O)(c2ccccc2)CC1 [1-[(1S,2S)-2-Hydroxy-2-(4-hydroxy-phenyl)-1-methyl-ethyl]-4-phenyl-piperidin-4-ol]
< 5.00 | NCCCCNCCCN [spermidine]
5.70 | NCCCNCCCCNCCCN [N,N''-bis(3-azanylpropyl)butane-1,4-diamine;hydrochloride]
8.22 | C[C@@H](CN1CCC(Cc2ccccc2)CC1)[C@@H](O)c1ccc(O)cc1

SMILES | pKi
COc1cc2c(cc1O)C(CCc1ccc(Cl)cc1)N(C)CC2 (stereo unspecified) [Ro 04-5595] | 7.70
